# Reference: BigSolDB 2.1
structure (smiles),measurement,setting,value
c1ccc(-c2nnn[nH]2)cc1,solubility (mole fraction),"in 1,4-dioxane, 283.15 K",0.00929
same,solubility (mole fraction),"in 1,4-dioxane, 285.65 K",0.00982
same,solubility (mole fraction),"in 1,4-dioxane, 288.15 K",0.0104
same,solubility (mole fraction),"in 1,4-dioxane, 290.65 K",0.0109
same,solubility (mole fraction),"in 1,4-dioxane, 293.15 K",0.0114
same,solubility (mole fraction),"in 1,4-dioxane, 295.65 K",0.012
same,solubility (mole fraction),"in 1,4-dioxane, 298.15 K",0.0125
same,solubility (mole fraction),"in 1,4-dioxane, 300.65 K",0.0131
same,solubility (mole fraction),"in 1,4-dioxane, 303.15 K",0.0138
same,solubility (mole fraction),"in 1,4-dioxane, 305.65 K",0.0145
same,solubility (mole fraction),"in 1,4-dioxane, 308.15 K",0.0151
same,solubility (mole fraction),"in 1,4-dioxane, 310.65 K",0.0158
same,solubility (mole fraction),"in 1,4-dioxane, 313.15 K",0.0165
same,solubility (mole fraction),"in 1,4-dioxane, 315.65 K",0.0172
same,solubility (mole fraction),"in 1,4-dioxane, 318.15 K",0.018
same,solubility (mole fraction),"in 2-butanone, 283.15 K",0.0156
same,solubility (mole fraction),"in 2-butanone, 285.65 K",0.0163
same,solubility (mole fraction),"in 2-butanone, 288.15 K",0.017
same,solubility (mole fraction),"in 2-butanone, 290.65 K",0.0178
same,solubility (mole fraction),"in 2-butanone, 293.15 K",0.0185
same,solubility (mole fraction),"in 2-butanone, 295.65 K",0.0193
same,solubility (mole fraction),"in 2-butanone, 298.15 K",0.0202
same,solubility (mole fraction),"in 2-butanone, 300.65 K",0.0211
same,solubility (mole fraction),"in 2-butanone, 303.15 K",0.022
same,solubility (mole fraction),"in 2-butanone, 305.65 K",0.023
same,solubility (mole fraction),"in 2-butanone, 308.15 K",0.0239
same,solubility (mole fraction),"in 2-butanone, 310.65 K",0.0249
same,solubility (mole fraction),"in 2-butanone, 313.15 K",0.026
same,solubility (mole fraction),"in 2-butanone, 315.65 K",0.0271
same,solubility (mole fraction),"in 2-butanone, 318.15 K",0.0281
same,solubility (mole fraction),"in DMF, 283.15 K",0.208
same,solubility (mole fraction),"in DMF, 285.65 K",0.22
same,solubility (mole fraction),"in DMF, 288.15 K",0.231
same,solubility (mole fraction),"in DMF, 290.65 K",0.244
same,solubility (mole fraction),"in DMF, 293.15 K",0.257
same,solubility (mole fraction),"in DMF, 295.65 K",0.269
same,solubility (mole fraction),"in DMF, 298.15 K",0.282
same,solubility (mole fraction),"in DMF, 300.65 K",0.296
same,solubility (mole fraction),"in DMF, 303.15 K",0.308
same,solubility (mole fraction),"in DMF, 305.65 K",0.322
same,solubility (mole fraction),"in DMF, 308.15 K",0.336
same,solubility (mole fraction),"in DMF, 310.65 K",0.35
same,solubility (mole fraction),"in DMF, 313.15 K",0.365
same,solubility (mole fraction),"in DMF, 315.65 K",0.379
same,solubility (mole fraction),"in DMF, 318.15 K",0.393
same,solubility (mole fraction),"in DMSO, 293.15 K",0.278
same,solubility (mole fraction),"in DMSO, 295.65 K",0.291
same,solubility (mole fraction),"in DMSO, 298.15 K",0.304
same,solubility (mole fraction),"in DMSO, 300.65 K",0.317
same,solubility (mole fraction),"in DMSO, 303.15 K",0.33
same,solubility (mole fraction),"in DMSO, 305.65 K",0.343
same,solubility (mole fraction),"in DMSO, 308.15 K",0.356
same,solubility (mole fraction),"in DMSO, 310.65 K",0.369
same,solubility (mole fraction),"in DMSO, 313.15 K",0.384
same,solubility (mole fraction),"in DMSO, 315.65 K",0.398
same,solubility (mole fraction),"in DMSO, 318.15 K",0.412
same,solubility (mole fraction),"in acetone, 283.15 K",0.0169
same,solubility (mole fraction),"in acetone, 285.65 K",0.0176
same,solubility (mole fraction),"in acetone, 288.15 K",0.0184
same,solubility (mole fraction),"in acetone, 290.65 K",0.0192
same,solubility (mole fraction),"in acetone, 293.15 K",0.02
same,solubility (mole fraction),"in acetone, 295.65 K",0.0208
same,solubility (mole fraction),"in acetone, 298.15 K",0.0217
same,solubility (mole fraction),"in acetone, 300.65 K",0.0226
same,solubility (mole fraction),"in acetone, 303.15 K",0.0236
same,solubility (mole fraction),"in acetone, 305.65 K",0.0245
same,solubility (mole fraction),"in acetone, 308.15 K",0.0256
same,solubility (mole fraction),"in acetone, 310.65 K",0.0266
same,solubility (mole fraction),"in acetone, 313.15 K",0.0278
same,solubility (mole fraction),"in acetone, 315.65 K",0.029
same,solubility (mole fraction),"in acetone, 318.15 K",0.0302
same,solubility (mole fraction),"in acetonitrile, 283.15 K",0.00181
same,solubility (mole fraction),"in acetonitrile, 285.65 K",0.00197
same,solubility (mole fraction),"in acetonitrile, 288.15 K",0.00216
same,solubility (mole fraction),"in acetonitrile, 290.65 K",0.00236
same,solubility (mole fraction),"in acetonitrile, 293.15 K",0.00253
same,solubility (mole fraction),"in acetonitrile, 295.65 K",0.0028
same,solubility (mole fraction),"in acetonitrile, 298.15 K",0.00307
same,solubility (mole fraction),"in acetonitrile, 300.65 K",0.00331
same,solubility (mole fraction),"in acetonitrile, 303.15 K",0.00359
same,solubility (mole fraction),"in acetonitrile, 305.65 K",0.00389
same,solubility (mole fraction),"in acetonitrile, 308.15 K",0.00421
same,solubility (mole fraction),"in acetonitrile, 310.65 K",0.00449
same,solubility (mole fraction),"in acetonitrile, 313.15 K",0.0049
same,solubility (mole fraction),"in acetonitrile, 315.65 K",0.0052
same,solubility (mole fraction),"in acetonitrile, 318.15 K",0.00555
same,solubility (mole fraction),"in cyclohexane, 283.15 K",3.56e-06
same,solubility (mole fraction),"in cyclohexane, 285.65 K",3.93e-06
same,solubility (mole fraction),"in cyclohexane, 288.15 K",4.34e-06
same,solubility (mole fraction),"in cyclohexane, 290.65 K",4.54e-06
same,solubility (mole fraction),"in cyclohexane, 293.15 K",5.04e-06
same,solubility (mole fraction),"in cyclohexane, 295.65 K",5.38e-06
same,solubility (mole fraction),"in cyclohexane, 298.15 K",5.97e-06
same,solubility (mole fraction),"in cyclohexane, 300.65 K",6.41e-06
same,solubility (mole fraction),"in cyclohexane, 303.15 K",6.91e-06
